# Key:
# [1] = system: induced mouse models of atherosclerosis; assay: induced mouse models of atherosclerosis; assay type: in vivo, mice
# Source text: Inducing atherosclerotic plaque development in mice is disclosed in details in U.S. patent application Ser. No. 12/286,368, which is herein incorporated by reference in its entirety. These mouse models are used for testing tetracycline-acenocoumorol conjugate to determine their efficacy both on reducing progression of plaque development and symptoms of chronic inflammation. Mice purchased from vendors are used for in vivo atherosclerotic plaque development by multiple doses of plaque complexes by intra-peritoneal and intravenous routes as described U.S. patent application Ser. No. 12/286,368. […] Ovastatin, an established anti-atherosclerotic drug (Schwartz et al, 2001) is used for control purposes in these studies and administered by oral route.
# Ovastatin, tetracycline, clopidogrel or any anti-coagulant individually and tetracycline-clopidogrel (0.1-5 mg/kg per day) are orally administrated to the symptomatic and asymptomatic atherosclerotic mice models for 8 to 12 weeks. Following administration of the drugs, mice with asymptomatic plaque development are euthanized and blood collected via cardiac puncture. The blood samples will be used test clotting or blood coagulation test to analyse anti-coagulation efficacy of drugs used.
# [2] = doses between 12.5 and 300 mg twice daily; cited from earlier work
Compound,"plaque accumulation, histochemical analysis of heart tissues ([1]; asymptomatic mice model, after treatment)","symptoms of plaque inflammation ([1]; mice with plaque induced chronic inflammation, compared to control animal without treatment)",safety profile [2]
CC[C@H](C)C(=O)O[C@H]1C[C@@H](C)C=C2C=C[C@H](C)[C@H](CC[C@@H]3C[C@@H](O)CC(=O)O3)[C@H]21 [ovastatin],reduced plaque accumulation,reduced symptoms of plaque inflammation,–
[H]/N=C(/N)c1ccc(NCc2nc3cc(C(=O)N(CCC(=O)O)c4ccccn4)ccc3n2C)cc1 [dabigatran],–,–,good safety profile

# — US20100292183A1, “TETRACYCLINE AND USES THEREOF” (priority 2009, published 2010)
